Structures are written as SMILES.

The target in series [1] is T1, human PDE4B1 (Homo sapiens, UniProt Q07343).
T1 construct: host or cells: Sf9 cells
As to the kind of experiment: TR-FRET assay using the LANCE Ultra cAMP kit to determine the activity of hPDE4B1. In kind it is biochemical. To be noted: test substrate concentration of 10 μM, read-out: Inhibition of PDE4B, Inhibition in %. The source says: TR-FRET Assay Using the LANCE® Ultra cAMP Kit to Determine the Activity of hPDE4B1
The effects of the compounds on the activity of the human PDE4B1 was quantified by measuring the production of 5′AMP from cAMP using a human recombinant enzyme expressed in Sf9 cells and the LANCE® Ultra cAMP kit, a TR-FRET detection method from PerkinElmer. The human PDE4B1 enzyme was purchased from SignalChem Lifesciences (Catalog #P92-31BG, Lot #H296-2).
The test compound, reference compound or water (control) was mixed with the enzyme (0.96 U) in a reaction buffer containing 50 mM Tris-HCl, 50 mM MgCl2 and 5 mM DTT (pH 8.5). Thereafter, the reaction was initiated by addition of 500 nM cAMP (substrate) and the mixture was incubated for 30 minutes at room temperature. For control basal measurements, the enzyme was omitted from the reaction mixture. After 30 minutes, the reaction was stopped and diluted by a factor of 100 with the reaction buffer supplemented with 500 μM IBMX. The fluorescence donor (europium chelate-labeled cAMP) and the fluorescence acceptor (anti-cAMP antibody labeled with the ULight™ dye) were then added together with 500 μM IBMX to a 10 μl aliquot. After 60 minutes, the fluorescence transfer corresponding to the amount of residual cAMP was measured at λex=337 nm, λem=620 nm and λem=665 nm using a microplate reader (PHERAstar, BMG). The enzyme activity was determined by dividing the signal measured at 665 nm by that measured at 620 nm (ratio) multiplied by 10000. The results were expressed as percent inhibition of the control enzyme activity. IC50 values (IC50=concentration causing a half-maximal inhibition of control specific activity) were derived from dose response measurements with ten different concentrations (n=3; N=1-3).

T1 sequence (Q07343 whole entry): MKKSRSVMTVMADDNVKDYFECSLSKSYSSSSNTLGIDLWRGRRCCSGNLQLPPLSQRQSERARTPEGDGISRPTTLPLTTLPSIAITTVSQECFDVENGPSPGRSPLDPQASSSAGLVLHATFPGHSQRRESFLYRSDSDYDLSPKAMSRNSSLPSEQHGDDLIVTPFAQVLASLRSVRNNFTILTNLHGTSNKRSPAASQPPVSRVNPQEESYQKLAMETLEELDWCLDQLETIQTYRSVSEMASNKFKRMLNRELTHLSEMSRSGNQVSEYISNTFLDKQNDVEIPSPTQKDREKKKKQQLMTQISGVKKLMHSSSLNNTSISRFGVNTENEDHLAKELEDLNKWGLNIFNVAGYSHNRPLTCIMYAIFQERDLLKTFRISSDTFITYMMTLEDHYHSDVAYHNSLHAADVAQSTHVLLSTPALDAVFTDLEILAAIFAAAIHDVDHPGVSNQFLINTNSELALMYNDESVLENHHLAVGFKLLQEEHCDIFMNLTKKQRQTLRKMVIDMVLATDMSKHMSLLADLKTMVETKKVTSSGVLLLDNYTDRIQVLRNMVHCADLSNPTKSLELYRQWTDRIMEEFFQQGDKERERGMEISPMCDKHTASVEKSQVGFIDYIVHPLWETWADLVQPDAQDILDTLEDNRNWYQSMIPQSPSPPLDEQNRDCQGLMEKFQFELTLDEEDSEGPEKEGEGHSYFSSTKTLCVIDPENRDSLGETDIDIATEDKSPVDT

`Cc1nn(-c2ncc(-c3cc([S+](C)[O-])ccc3F)cn2)c2cc(C(=O)N(C)CC(N)=O)ccc12` (centres unmarked) [Compound No. 64, N-(2-Amino-2-oxoethyl)-1-(5-(2-fluoro-5-(methylsulfinyl)phenyl)pyrimidin-2-yl)-N,3-dimethyl-1H-indazole-6-carboxamide] yielded a melting point of 164 to 168 °C. Further, the inhibition at 10 µM in series [1] is 42%.

A word on the inhibition: it is the change of the read-out against control, counted positive when it falls. A word on the melting point: it is the temperature of the solid-liquid transition.

For the origin of these results see patent US9546158B2, “2,5-substituted pyrimidines” (Grünenthal GmbH, priority 2014, dated 2017).
